Measurements: ChEMBL document CHEMBL1201862, “PubChem BioAssay data set” (2004)
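1) Cells in 96-well plates. 2) Compound, 48 h, 5 concentrations. 3) Linear interpolation between surrounding doses. 4) Unreached endpoint = highest concentration. Abbreviation: GI50, concentration required for 50% inhibition of growth.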 Active and inactive are the calls of the source. Cut-off read from the data, not from the text of the source: active = GI50 up to about 1.1 µM and inactive = higher.

Columns and labels:
Experiment in all cases: NCI tumour cell line growth inhibition, 48 h
[1] = system: RPMI-8226
[2] = system: NCI-H23
[3] = system: UACC-62
[4] = system: HL-60
[5] = system: HOP-18
[6] = system: KM12
[7] = system: OVCAR-5
[8] = system: K562
[9] = system: HOP-62
[10] = system: NCI-H226
[11] = system: HCT-116
[12] = system: Malme-3M
[13] = system: SK-OV-3
[14] = system: ACHN
[15] = system: 786-0
[16] = system: HCT-15
[17] = system: SK-MEL-2
[18] = system: SF-539
[19] = system: OVCAR-4
[20] = system: SF-295
[21] = system: OVCAR-8
[22] = system: SF-268
[23] = system: EKVX
[24] = system: SW-620
[25] = system: LOX IMVI
[26] = system: DLD-1
[27] = system: U-251
[28] = system: DMS-273
[29] = system: RXF 631
[30] = system: COLO 205
[31] = system: UACC-257
[32] = system: A498
[33] = system: SK-MEL-5
[34] = system: XF498
[35] = system: UO-31
[36] = system: SNB-19
[37] = system: SK-MEL-28
[38] = system: HCC 2998
[39] = system: OVCAR-3
[40] = system: A549
[41] = system: SN12C
[42] = system: HT-29
[43] = system: IGROV-1
[44] = system: NCI-H522
[45] = system: CAKI-1
[46] = system: MOLT-4
[47] = system: TK-10
[48] = system: CCRF-CEM
[49] = system: M19-MEL
[50] = system: LXFL 529
[51] = system: DMS-114
[52] = system: SNB-75
[53] = system: NCI-H460
[54] = system: SR
[55] = system: M14
[56] = system: RXF 393
[57] = system: HOP-92

Compound: S=P1(Oc2ccccc2)NNP2(=NP(N3CC3)(N3CC3)=NP(N3CC3)(N3CC3)=N2)NN1 (configuration not stated)
- GI50 [1]: > 100 µM (inactive)
- GI50 [2]: 41.9 µM (inactive)
- GI50 [3]: 98.4 µM (inactive)
- GI50 [4]: 30.4 µM (inactive)
- GI50 [5]: > 100 µM (inactive)
- GI50 [6]: > 100 µM (inactive)
- GI50 [7]: > 100 µM (inactive)
- GI50 [8]: > 100 µM (inactive)
- GI50 [9]: 49.4 µM (inactive)
- GI50 [10]: > 100 µM (inactive)
- GI50 [11]: > 100 µM (inactive)
- GI50 [12]: > 100 µM (inactive)
- GI50 [13]: > 100 µM (inactive)
- GI50 [14]: > 100 µM (inactive)
- GI50 [15]: > 100 µM (inactive)
- GI50 [16]: > 100 µM
- GI50 [17]: > 100 µM (inactive)
- GI50 [18]: > 100 µM (inactive)
- GI50 [19]: > 100 µM (inactive)
- GI50 [20]: > 10 µM (inactive)
- GI50 [21]: > 100 µM (inactive)
- GI50 [22]: 78.3 µM (inactive)
- GI50 [23]: > 100 µM (inactive)
- GI50 [24]: > 100 µM (inactive)
- GI50 [25]: > 100 µM (inactive)
- GI50 [26]: > 100 µM (inactive)
- GI50 [27]: > 100 µM (inactive)
- GI50 [28]: 76.4 µM (inactive)
- GI50 [29]: > 100 µM (inactive)
- GI50 [30]: > 100 µM (inactive)
- GI50 [31]: > 100 µM (inactive)
- GI50 [32]: > 100 µM (inactive)
- GI50 [33]: > 100 µM (inactive)
- GI50 [34]: > 100 µM (inactive)
- GI50 [35]: > 100 µM (inactive)
- GI50 [36]: > 100 µM (inactive)
- GI50 [37]: > 100 µM (inactive)
- GI50 [38]: > 100 µM (inactive)
- GI50 [39]: > 100 µM (inactive)
- GI50 [40]: > 100 µM (inactive)
- GI50 [41]: 84.1 µM (inactive)
- GI50 [42]: > 100 µM (inactive)
- GI50 [43]: > 100 µM (inactive)
- GI50 [44]: > 100 µM (inactive)
- GI50 [45]: > 100 µM (inactive)
- GI50 [46]: 19.6 µM (inactive)
- GI50 [47]: > 100 µM (inactive)
- GI50 [48]: 38.9 µM (inactive)
- GI50 [49]: > 100 µM (inactive)
- GI50 [50]: > 100 µM (inactive)
- GI50 [51]: > 100 µM (inactive)
- GI50 [52]: 64.4 µM (inactive)
- GI50 [53]: 37.6 µM (inactive)

Compound: COc1cccc(/C=C2\CCC(CCN(C)C)(C3=CCCC3)C2=O)c1 (configuration not stated)
- GI50 [1]: 11.7 µM (inactive)
- GI50 [2]: 19.3 µM (inactive)
- GI50 [3]: 15.4 µM (inactive)
- GI50 [54]: 35.5 µM (inactive)
- GI50 [5]: 13.7 µM (inactive)
- GI50 [6]: 17.2 µM (inactive)
- GI50 [7]: 14.6 µM (inactive)
- GI50 [8]: 15.5 µM (inactive)
- GI50 [9]: 17.2 µM (inactive)
- GI50 [10]: 17.1 µM (inactive)
- GI50 [11]: 13.8 µM (inactive)
- GI50 [12]: 15.6 µM (inactive)
- GI50 [14]: 16.7 µM (inactive)
- GI50 [15]: 14.7 µM (inactive)
- GI50 [55]: 14.4 µM (inactive)
- GI50 [16]: 16.2 µM
- GI50 [17]: 15.9 µM (inactive)
- GI50 [18]: 16.1 µM (inactive)
- GI50 [19]: 16.4 µM (inactive)
- GI50 [56]: 8.73 µM (inactive)
- GI50 [20]: 17 µM (inactive)
- GI50 [21]: 17.3 µM (inactive)
- GI50 [22]: 21.3 µM (inactive)
- GI50 [24]: 13.9 µM (inactive)
- GI50 [57]: 12.3 µM (inactive)
- GI50 [25]: 15.6 µM (inactive)
- GI50 [26]: 17.8 µM (inactive)
- GI50 [27]: 16.6 µM (inactive)
- GI50 [28]: 14.4 µM (inactive)
- GI50 [29]: 23.7 µM (inactive)
- GI50 [30]: 8.3 µM (inactive)
- GI50 [31]: 15.5 µM (inactive)
- GI50 [32]: 15.7 µM (inactive)
- GI50 [33]: 17.7 µM (inactive)
- GI50 [34]: 17.7 µM (inactive)
- GI50 [35]: 13.6 µM (inactive)
- GI50 [36]: 16.8 µM (inactive)
- GI50 [37]: 15.9 µM (inactive)
- GI50 [38]: 16.7 µM (inactive)
- GI50 [39]: 17.3 µM (inactive)
- GI50 [40]: 16.1 µM (inactive)
- GI50 [41]: 14.9 µM (inactive)
- GI50 [42]: 13.8 µM (inactive)
- GI50 [43]: 15.8 µM (inactive)
- GI50 [44]: 13.4 µM (inactive)
- GI50 [45]: 12.3 µM (inactive)
- GI50 [46]: 13.9 µM (inactive)
- GI50 [47]: 15.8 µM (inactive)
- GI50 [48]: 19.1 µM (inactive)
- GI50 [49]: 16.4 µM (inactive)
- GI50 [50]: 15.5 µM (inactive)
- GI50 [51]: 14.3 µM (inactive)
- GI50 [52]: 15.9 µM (inactive)
- GI50 [53]: 15.8 µM (inactive)
